US20180282271A1, “ANTIBIOTIC AMINO ACID MIMETICS” (priority 2017, published 2018)
In brackets after ≈: the same amount, converted by molar mass. Where a SMILES comes first, the peptide text is derived from it. [ ]: non-standard residue; d: D form. The star is where a group is joined. ξ: configuration not given here. ξhSer = NC(CCO)C(=O)O; ξC = NC(CS)C(=O)O; tBu = CC(C)(C)*; NHOH = ON*

Tests used:
P. aer. = assay: MIC, conventional methods; format: cell-based, Pseudomonas aeruginosa
Experimental: (§1) The following L,L-dipeptides were tested for their minimum inhibitory concentrations against three different bacterial strains as set forth in the table below. The testing protocol followed conventional methods and identified a MIC value reported as micrograms per milliliter (μg/mL). Each of the dipeptides had the following structure: Based on the above results, the sidechain of the methionine mimetic was modified to evaluate the effect of such substitution on MIC values. Again, this test used conventional assays to measure the MIC values of each of these modified mimetics.

S. aureus = assay: MIC, conventional methods; format: cell-based, Staphylococcus aureus
Experimental: as §1

E. coli = assay: MIC, conventional methods; format: cell-based, Escherichia coli
Experimental: as §1

E. coli (ATTC 8739) = assay: Zone of inhibition test; format: cell-based
Experimental: Compound A was tested against L-phenylalanine-(S)-2-amino-N-hydroxy-4-(methylthio)butanamide hydrochloride (Example 3) in a side-by-side comparison in a conventional zone of inhibition test. In this test, both compounds were compared at various concentrations against E. coli (ATTC 8739) grown in a Petri dish using the antibiotic kanamycin as a control.

[1] = Table 1, L,L-dipeptides varied in T
[2] = Table 2, side chain Q of the methionine mimetic varied

SMILES | MIC P. aer. (P. aer.; [1]) | MIC S. aur. (S. aureus; [1]) | MIC E. coli (E. coli; [1]) | MIC P. aer. (P. aer.; [2]) | MIC S. aur. (S. aureus; [2]) | MIC E. coli (E. coli; [2]) | concentration at which a zone of inhibition was shown (E. coli (ATTC 8739); E. coli grown in a Petri dish, FIG. 1A/1B) | strength of the zone of inhibition, in words (E. coli (ATTC 8739); cpd. A at 50 μg, Ex. 3 at 12.5 μg)
CSCC[C@H](NC(=O)[C@@H]1CCCN1)C(=O)NO [D] (H-Pro-Met-{NHOH}) | 270 µg/mL (≈ 1030 µM) | 125 µg/mL (≈ 478 µM) | 312 µg/mL (≈ 1190 µM) | – | – | – | – | –
CCCCC(NC(=O)CN)C(=O)NO (centres unmarked) [I] | – | – | – | 520 µg/mL (≈ 2560 µM) | 51 µg/mL (≈ 251 µM) | 69 µg/mL (≈ 339 µM) | – | –
CC(C)(C)SCC(NC(=O)CN)C(=O)NO (centres unmarked) [N] (H-Gly-[ξC](tBu)-{NHOH}) | – | – | – | 693 µg/mL (≈ 2780 µM) | 77 µg/mL (≈ 309 µM) | 195 µg/mL (≈ 782 µM) | – | –
CS(=O)(=O)CCC(NC(=O)CN)C(=O)NO (centres unmarked) [H] | – | – | – | 416 µg/mL (≈ 1640 µM) | 104 µg/mL (≈ 411 µM) | 208 µg/mL (≈ 821 µM) | – | –
C[S+]([O-])CCC(NC(=O)CN)C(=O)NO (centres unmarked) [G] | – | – | – | 416 µg/mL (≈ 1750 µM) | 51 µg/mL (≈ 215 µM) | 123 µg/mL (≈ 518 µM) | – | –
CSCC[C@H](NC(=O)CN)C(=O)NO [Compound A] | 647 µg/mL (≈ 2920 µM) | 84 µg/mL (≈ 380 µM) | 138 µg/mL (≈ 624 µM) | 647 µg/mL (≈ 2920 µM) | 84 µg/mL (≈ 380 µM) | 138 µg/mL (≈ 624 µM) | 50 µg | quite weak
CSCC[C@H](NC(=O)[C@@H](N)CCC(=O)O)C(=O)NO [Compound F] (H-Glu-Met-{NHOH}) | 1660 µg/mL (≈ 5660 µM) | 312 µg/mL (≈ 1060 µM) | 554 µg/mL (≈ 1890 µM) | – | – | – | – | –
COCCC(NC(=O)CN)C(=O)NO (centres unmarked) [O] (H-Gly-[ξhSer](Me)-{NHOH}) | – | – | – | 624 µg/mL (≈ 3040 µM) | 112 µg/mL (≈ 546 µM) | 374 µg/mL (≈ 1820 µM) | – | –
CSCC[C@H](NC(=O)[C@@H](N)C(C)C)C(=O)NO [C] (H-Val-Met-{NHOH}) | 833 µg/mL (≈ 3160 µM) | 416 µg/mL (≈ 1580 µM) | 520 µg/mL (≈ 1970 µM) | – | – | – | – | –
